One experiment concerns the target PD-1/PD-L1 (Homo sapiens, UniProt Q9NZQ7). The experiment can be described thus: PD-1/PD-L1 biochemical protein-protein interaction assay (ALPHA). The format is binding. To be noted: 0.3 nM His tagged PD-L1, 2.5 nM biotinylated Fc-PD-1, 60 minutes at 25° C., read-out: IC50 PD-L1-PD-1 Alpha IC50-mono PD-L1-fcP-D1. The procedure: Biological Activity PD-1/PD-L1 & CTLA/CD80 Biochemical Protein-Protein Interaction Assay
Compounds were tested in biochemical protein-protein interaction assays to determine if they can specifically block the interaction between the extracellular domains of PD-1/PD-L1 or CTLA/CD80. Binding of the protein pairs is measured using a bead based Amplified Luminescent Proximity Homogeneous Assay (ALPHA) platform. Binding of each protein pair results in proximity of the donor and acceptor beads which leads to an increase in ALPHA signal. Disruption of the protein-protein interaction with a test compound results in a decrease in ALPHA signal. Assays are performed in 25 mM Hepes (pH 7.4), 150 mM NaCl, 3.4 mM EDTA, 0.005% Tween 20, and 0.01% BSA. Final protein concentration in the assays were 0.3 nM (His tagged PD-L1), 2.5 nM (biotinylated Fc-PD-1), 1 nM (His tagged CTLA4) and 1 nM (biotinylated CD80). After an assay reaction time of 60 minutes at 25° C., binding was measured with addition of 20 μg/mL ALPHA assay acceptor beads (anti-His coated) and […] ALPHA assay donor beads (streptavidin coated). IC50 values were calculated from the fit of the dose-response curves to a four-parameter equation. Representative data are shown below in Table 1.

The target of the next experiment is T1, PD-1/PD-L1 interaction (Homo sapiens, UniProt Q9NZQ7).
T1 construct: expressed in transfected cells; host or cells: CHO cells (aAPC-PD-L1) co-cultured with Jurkat cells overexpressing PD-1 and an NFAT-luciferase reporter
T1 sequence (Q9NZQ7 19-290): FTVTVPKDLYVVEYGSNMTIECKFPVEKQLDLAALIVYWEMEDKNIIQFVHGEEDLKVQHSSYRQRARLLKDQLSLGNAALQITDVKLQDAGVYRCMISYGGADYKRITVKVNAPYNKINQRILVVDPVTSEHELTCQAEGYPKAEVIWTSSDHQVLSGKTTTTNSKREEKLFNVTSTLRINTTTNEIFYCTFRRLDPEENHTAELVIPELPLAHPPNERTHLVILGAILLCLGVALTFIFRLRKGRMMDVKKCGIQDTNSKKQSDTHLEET
The experiment can be described thus: PD-1/PD-L1 NFAT reporter co-culture assay. To be noted: Jurkat PD-1 NFAT-luciferase cells co-cultured with aAPC-PD-L1 CHO cells, 6 hrs at 37° C.; read-out: EC50 NFAT Luciferase. The format is cell-based. In a few lines: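 Restoration of TCR-driven NFAT luciferase signal: 6 h, 37 °C co-culture of PD-1 Jurkat reporter cells (pre-mixed with compound) on overnight-seeded PD-L1/anti-CD3 CHO monolayer. ONE-Glo luminescence; dose-response fitted to four-parameter equation for EC50.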

By IC50 is commonly meant the midpoint of a concentration-inhibition curve. By EC50 is commonly meant the concentration that produces a half-maximal response.

PD-1/PD-L1, sequence (Q9NZQ7 19-238 limits assumed): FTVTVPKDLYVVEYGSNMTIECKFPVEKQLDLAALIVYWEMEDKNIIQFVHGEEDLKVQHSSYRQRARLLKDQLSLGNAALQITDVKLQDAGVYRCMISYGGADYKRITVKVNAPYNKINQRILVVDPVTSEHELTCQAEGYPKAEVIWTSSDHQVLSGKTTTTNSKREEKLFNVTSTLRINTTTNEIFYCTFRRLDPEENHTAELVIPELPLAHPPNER

As to `Cc1c(COc2ccc(CNCCO)cc2)cccc1-c1cccc(COc2cc(OCc3cncc(C#N)c3)c(CNCCO)cc2Cl)c1C` [Example 69, 5-((4-chloro-2-(((2-hydroxyethyl)amino)methyl)-5-((3′-((4-(((2-hydroxyethyl)amino)methyl)phenoxy)methyl)-2,2′-dimethyl-[1,1′-biphenyl]-3-yl)methoxy)phenoxy)methyl)nicotinonitrile], the IC50 at PD-1/PD-L1 was determined as 14.2 nM. Further, the half-maximal effective concentration (EC50) at PD-1/PD-L1 interaction came out at 1740 nM.
The corresponding values for `CC(=O)NCCNCc1cc(Cl)c(OCc2cccc(-c3cccc(COc4cc(OCc5cncc(C#N)c5)c(CNCCNC(C)=O)cc4Cl)c3C)c2C)cc1OCc1cncc(C#N)c1` [Example 70, N,N′-(((((((2,2′-dimethyl-[1,1′-biphenyl]-3,3′-diyl)bis(methylene))bis(oxy))bis(5-chloro-2-((5-cyanopyridin-3-yl)methoxy)-4,1-phenylene))bis(methylene))bis(azanediyl))bis(ethane-2,1-diyl))diacetamide] are 10.6 nM and 902 nM.
For `Cc1c(COc2ccc(CNCCO)cc2Cl)cccc1-c1cccc(COc2cc(OCc3cncc(C#N)c3)c(CNCCO)cc2Cl)c1C` [Example 71, 5-((4-chloro-5-((3′-((2-chloro-4-(((2-hydroxyethyl)amino)methyl)phenoxy)methyl)-2,2′-dimethyl-[1,1′-biphenyl]-3-yl)methoxy)-2-(((2-hydroxyethyl)amino)methyl)phenoxy)methyl)nicotinonitrile], in that order: 26.5 nM and 1030 nM.
The corresponding values for `COc1nc(OCc2cccc(-c3cccc(COc4ccc(CNCCO)c(OC)n4)c3C#N)c2C)ccc1CNCCO` [Example 72, 3,3′-bis(((5-(((2-hydroxyethyl)amino)methyl)-6-methoxypyridin-2-yl)oxy)methyl)-2′-methyl-[1,1′-biphenyl]-2-carbonitrile] are 8 nM and 2510 nM.
Regarding `Cc1c(COc2cc(OCc3cncc(C#N)c3)c(CNCCCO)cc2Cl)cccc1-c1cccc(COc2cc(OCc3cncc(C#N)c3)c(CNCCCO)cc2Cl)c1C` [Example 73, 5,5′-((((((2,2′-dimethyl-[1,1′-biphenyl]-3,3′-diyl)bis(methylene))bis(oxy))bis(4-chloro-6-(((3-hydroxypropyl)amino)methyl)-3,1-phenylene))bis(oxy))bis(methylene))dinicotinonitrile], on PD-1/PD-L1, the IC50 was 56.1 nM. Besides, at PD-1/PD-L1 interaction, the half-maximal effective concentration (EC50) was determined as 2620 nM.
Turning to `COc1nc(OCc2cccc(-c3cccc(COc4ccc(CNCC(O)C(F)(F)C(=O)O)c(OC)n4)c3C)c2C)ccc1CNCC(O)C(F)(F)C(=O)O` (stereo not shown) [Example 84, 4,4′-((((((2,2′-dimethyl-[1,1′-biphenyl]-3,3′-diyl)bis(methylene))bis(oxy))bis(2-methoxypyridine-6,3-diyl))bis(methylene))bis(azanediyl))bis(2,2-difluoro-3-hydroxybutanoic acid)], the IC50 on PD-1/PD-L1 came to 0.9 nM. Further, the half-maximal effective concentration (EC50) at PD-1/PD-L1 interaction was 10000 nM.
For `COc1nc(OCc2cccc(-c3cccc(COc4nc(OC)c(CNC[C@@H](O)CC(=O)O)cc4C)c3C)c2C)c(C)cc1CNC[C@@H](O)CC(=O)O` [Example 119, (3S,3′S)-4,4′-((((((2,2′-dimethyl-[1,1′-biphenyl]-3,3′-diyl)bis(methylene))bis(oxy))bis(2-methoxy-5-methylpyridine-6,3-diyl))bis(methylene))bis(azanediyl))bis(3-hydroxybutanoic acid)], in that order: 0.8 nM and 863 nM.
As to `C=Cc1cc(CNC[C@@H](O)CC(=O)O)c(OC)nc1OCc1cccc(-c2cccc(COc3nc(OC)c(CNC[C@@H](O)CC(=O)O)cc3C=C)c2C)c1C` [Example 120, (3S,3′S)-4,4′-((((((2,2′-dimethyl-[1,1′-biphenyl]-3,3′-diyl)bis(methylene))bis(oxy))bis(2-methoxy-5-vinylpyridine-6,3-diyl))bis(methylene))bis(azanediyl))bis(3-hydroxybutanoic acid)], the IC50 on PD-1/PD-L1 was 2 nM. The EC50 at PD-1/PD-L1 interaction is 1300 nM.

Values taken from patent US12590062B2, “PD-1/PD-L1 inhibitors” (Gilead Sciences, Inc., priority 2017, dated 2026).
